The values that follow come from patent publication US20240300941A1, “HPK1 INHIBITORS, PREPARATION METHOD AND APPLICATION THEREOF” (ZHUHAI YUFAN BIOTECHNOLOGIES CO., LTD., priority 2018, published 2024).

One experiment concerns the target HPK1 (Homo sapiens (Human), UniProt Q92918). Kind of experiment: HPK1 ADP-Glo enzyme assay. It counts as biochemical. The conditions noted are these: HPK1 protein 5 nM, MBP and ATP substrate, ADP-Glo readout. On the procedure: The buffer used in the enzyme assay contains 5 mM MOPS (pH=7.2), 2.5 mM β-Glycerol Phosphate, 0.4 mM EDTA, 1 mM EGTA, 0.05 mM DTT, 5 mM MgCl2. The compound was dissolved in 100% DMSO at the concentration was 10 mM. The initial concentration of the test was 5 uM, and ten data points were diluted by three-fold gradient, and each point was repeatedly measured twice. The HPK1 protein was purchased from Thermo (Cat. No. PV6355) and diluted to 2× stock solution at the concentration of 10 nM (the final concentration of the enzyme assay was 5 nM). 2.5 µl of 2×HPK1 protein was added to each well of the plate containing the test compound, centrifuged at 1000 rpm for 30 seconds, and then incubated at 25° C. for 15 minutes. MBP protein was purchased from Millipore (Cat. No. 13-110) and ATP was purchased from Sigma (Cat. No. A7699-5G) and the two were formulated into 2× working solutions at concentrations of 4 uM and 80 uM. Added 2.5 μl mixture of 2×MBP and ATP, centrifuged at 1000 rpm for 30 seconds, then incubated at 25° C. for 90 minutes. Then added 5 ul of ADP-Glo™ (Promega, Cat. No. V9102) to the assay plate and incubated […] at 25° C. for 60 minutes. Finally, 10 ul of the kinase assay reagent (Promega, Cat. No. V9102) was added to the assay plate, centrifuged at 1000 rpm for 30 seconds at 25° C. for 60 minutes, and the […] intensity was determined.

Experiment [1] relates to pSLP-76(Ser376) in Jurkat E6-1 cells. In words: Jurkat E6-1 pSLP-76(Ser376) HTRF experiment. The class given is cell-based. The following applies: 4 hours compound incubation, anti-human CD3 antibody 20 minutes, Phospho-SLP-76 / SLP-76 HTRF. The method, then:
Jurkat E6-1 cells were purchased from ATCC (Cat. No. TIB-152TM) and cultured overnight with RPMI 1640 containing 0.5% o FBS, after that 20 μL (10^7 cells/mL) cells were added to the experimental plates. Then the test compounds were diluted by three-fold gradient, and 10 different concentrations were prepared, and 5 μl of each was added to the experimental plate, and incubated for 4 hours in 37° C. incubator containing 5% CO2. Then 5 ul of 6× anti-human CD3 antibody (Biolegend, Cat. No. 300432) was added and incubated for 20 minutes in 37° C. incubator containing 5% CO2. Finally, the Phospho-SLP-76 and SLP-76 results were determined using the Cisbio Phospho-SLP-76 and SLP-76 HTRF assay kits (items: 63ADK076PEH and 63ADK077PEH, respectively). Based on the results, the IC50 of the compound is calculated.

HPK1, sequence (Q92918 whole entry): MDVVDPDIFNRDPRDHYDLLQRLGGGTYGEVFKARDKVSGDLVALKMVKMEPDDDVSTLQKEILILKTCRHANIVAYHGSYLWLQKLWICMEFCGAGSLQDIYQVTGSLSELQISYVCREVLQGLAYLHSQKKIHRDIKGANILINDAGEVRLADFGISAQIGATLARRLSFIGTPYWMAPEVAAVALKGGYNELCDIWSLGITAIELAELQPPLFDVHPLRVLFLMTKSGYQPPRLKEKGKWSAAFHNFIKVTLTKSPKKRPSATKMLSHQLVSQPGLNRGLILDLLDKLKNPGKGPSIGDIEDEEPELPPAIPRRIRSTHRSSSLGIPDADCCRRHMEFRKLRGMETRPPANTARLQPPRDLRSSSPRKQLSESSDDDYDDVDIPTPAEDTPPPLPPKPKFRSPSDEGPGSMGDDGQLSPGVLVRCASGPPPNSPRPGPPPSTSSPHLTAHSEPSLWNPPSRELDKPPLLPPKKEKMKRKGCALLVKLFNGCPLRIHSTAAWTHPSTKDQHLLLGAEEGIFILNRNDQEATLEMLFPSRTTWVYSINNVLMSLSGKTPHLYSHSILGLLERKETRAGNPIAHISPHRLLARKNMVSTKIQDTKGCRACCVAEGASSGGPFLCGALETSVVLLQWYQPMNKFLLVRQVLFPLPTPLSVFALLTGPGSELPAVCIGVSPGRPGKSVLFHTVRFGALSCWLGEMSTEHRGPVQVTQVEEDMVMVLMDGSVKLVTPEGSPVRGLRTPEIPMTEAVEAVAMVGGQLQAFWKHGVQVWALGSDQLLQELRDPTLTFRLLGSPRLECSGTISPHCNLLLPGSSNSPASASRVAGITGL

In the case of `CN1CCC(c2ncc(-c3cnc(N)c(OCc4cncc(C#CC(C)(C)O)c4)c3)s2)CC1` [A44], the 50% inhibitory concentration (IC50) against HPK1 was less than 0.1 µM; in experiment [1] it was 1 to 50 µM.
Take `CC(C)c1ncc(-c2cnc(N)c(OCc3cncc(C#CC(C)(C)O)c3)c2)s1` [A45]: the IC50 on HPK1 fell in the range of 0.1 to 1 µM; in experiment [1], 1 to 50 µM.
On the same counts, the results for `Nc1ncc(-c2cnc(C3CCOCC3)s2)cc1OCc1cc(C#CC2(O)CC2)ccc1F` [A46] are less than 0.1 µM and less than 1 µM.
In the case of `Nc1ncc(-c2cnn(C3CCOCC3)c2)cc1OCc1cccc(C#CC2(O)CC2)c1` [A47], the IC50 was less than 0.1 µM against HPK1 and less than 1 µM in experiment [1].
`CN1CCC(c2ncc(-c3cnc(N)c(OCc4cc(C#CC5(O)CC5)ccc4F)c3)s2)CC1` [A48]: the IC50 against HPK1 is less than 0.1 µM; in experiment [1] it was less than 1 µM.
Regarding `CC(C)(O)C#Cc1cccc(COc2cc(-c3cnc(C4CCCCN4)s3)cnc2N)c1` (centres unmarked) [A49], the IC50 on HPK1 was less than 0.1 µM; in experiment [1], less than 1 µM.
Consider `Nc1ncc(-c2cnc(C3CCOCC3)s2)cc1OCc1cccc(C#CC2(O)CC2)c1` [A50], for which the IC50 against HPK1 is less than 0.1 µM; in experiment [1] it was less than 1 µM.
As for `Nc1ncc(-c2cnn(C3CCOCC3)c2)cc1OCc1cc(C#CC2(O)CC2)ccc1F` [A51], the IC50 against HPK1 is less than 0.1 µM; in experiment [1], less than 1 µM.
The corresponding values for `Nc1ncc(-c2cnc(C3CCNCC3)s2)cc1OCc1cccc(C#CC2(O)CC2)c1` [A52] are less than 0.1 µM and less than 1 µM.
Consider `Nc1ncc(-c2cnc(C3CCNCC3)s2)cc1OCc1cc(C#CC2(O)CC2)ccc1F` [A53], for which the IC50 against HPK1 is less than 0.1 µM; in experiment [1], less than 1 µM.
As to `Nc1ncc(-c2cnn(C3CCNCC3)c2)cc1OCc1cccc(C#CC2(O)CC2)c1` [A54], the half-inhibitory concentration (IC50) on HPK1 was less than 0.1 µM; in experiment [1], less than 1 µM.
On to `CN1CCC(c2ncc(-c3cnc(N)c(OCc4cc(C#CC(C)(C)O)ccc4Cl)c3)s2)CC1` [A55], for which the IC50 is less than 0.1 µM against HPK1 and less than 1 µM in experiment [1].
Consider `CC(C)(O)C#Cc1cccc(COc2cc(-c3cnc(C4CCCNC4)s3)cnc2N)c1` (centres unmarked) [A56], for which the IC50 against HPK1 is less than 0.1 µM; in experiment [1], less than 1 µM.
The corresponding values for `CN1CCC(c2ncc(-c3cnc(N)c(OCc4cc(F)cc(C#CC(C)(C)O)c4)c3)s2)CC1` [A57] are less than 0.1 µM and less than 1 µM.
Regarding `COc1ccc(C#CC(C)(C)O)cc1COc1cc(-c2cnc(C3CCN(C)CC3)s2)cnc1N` [A59], the IC50 against HPK1 is less than 0.1 µM; in experiment [1], less than 1 µM.
For `Cc1ccc(C#CC(C)(C)O)cc1COc1cc(-c2cnc(C3CCN(C)CC3)s2)cnc1N` [A60], the results for the IC50 (on HPK1; in experiment [1]) were less than 0.1 µM and less than 1 µM, respectively.
On the same counts, the results for `CC1CN(C)CCN1c1ncc(-c2cnc(N)c(OCc3cccc(C#CC(C)(C)O)c3)c2)s1` (centres unmarked) [A63] are less than 0.1 µM and less than 1 µM.
As to `C=CC(C)(O)C#Cc1cccc(COc2cc(-c3cnc(C4CCN(C)CC4)s3)cnc2N)c1` (centres unmarked) [A64], the IC50 on HPK1 is less than 0.1 µM; in experiment [1], less than 1 µM.
The corresponding values for `Cc1cc(C#CC(C)(C)O)cc(COc2cc(-c3cnc(C4CCN(C)CC4)s3)cnc2N)c1` [A71] are less than 0.1 µM and less than 1 µM.
